Patent US20230087342A1, “AZEPANE DERIVATIVE” (Nippon Chemiphar Co., Ltd., priority 2019, published 2023)

What follows are compounds tested against T1, human κ opioid receptors (Homo sapiens, UniProt P41145) (assay: Opioid receptor function test (Lance Ultra cAMP kit, agonist activity)). Conditions: CHO cells expressing human κ opioid receptors, 10 μM forskolin, 30 minutes.
T1 construct: host or cells: CHO cells
Assay type: cell-based
Description: Opioid Receptor Function Test
The function activity of the compound of the present invention on κ opioid receptors was examined.
Method: Using a Lance Ultra cAMP kit (Perkin Elmer), the examination was performed according to a predetermined method. In evaluation of agonist activity, CHO cells expressing human κ opioid receptors (Catalog No. CT6606, accession No. NM_000912) and a test compound were reacted in an assay buffer (1×HSS, 5 mM HEPES, pH 7.4, 0.5 mM IBMX (isobutylmethyixanthine), 0.1% SA) in the presence of 10 μM forskolin for 30 minutes. Subsequently, a cAMP detection reagent in the kit was added. One hour later, time-resolved fluorescence measurement was performed using an EnVision plate reader (Perkin Elmer). The evaluation of the test compound was performed in a concentration range of 10^−14 to 10^−7 M for the κ opioid receptor function test.

T1 sequence (P41145 whole entry): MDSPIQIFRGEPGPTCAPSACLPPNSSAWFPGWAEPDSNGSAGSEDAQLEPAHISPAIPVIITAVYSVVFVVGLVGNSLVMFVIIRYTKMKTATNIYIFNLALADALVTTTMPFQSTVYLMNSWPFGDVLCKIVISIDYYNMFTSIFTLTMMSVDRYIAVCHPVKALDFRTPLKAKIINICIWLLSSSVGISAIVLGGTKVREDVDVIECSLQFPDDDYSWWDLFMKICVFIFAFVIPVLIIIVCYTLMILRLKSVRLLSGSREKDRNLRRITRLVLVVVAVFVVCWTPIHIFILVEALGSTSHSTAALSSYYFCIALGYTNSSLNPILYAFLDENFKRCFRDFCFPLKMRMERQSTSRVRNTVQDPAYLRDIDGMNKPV

Point of comparison: Oc1ccc2c(c1)[C@@]13CCN(CCc4cn5ccccc5n4)CC[C@@]1(O)[C@@H](C2)N(CC1CC1)CC3 [Example 116, (5aS,6R,11bS)-14-(cyclopropylmethyl)-3-(2-(imidazo[1,2-a]pyridin-2-yl)ethyl)-2,3,4,5,6,7-hexahydro-6,11b-(epiminoethano)naphtho[1,2-d]azepine-5a,10(1H)-diol], EC50 0.021 nM. Against it:
- NC(=O)c1ccc2c(c1)[C@@]13CCN(C(=O)Cc4n[nH]c5ccccc45)CC[C@@]1(O)[C@@H](C2)N(CC1CC1)CC3 [Example 265, (5aS,6R,11bR)-3-(2-(1H-indazol-3-yl)acetyl)-14-(cyclopropylmethyl)-5a-hydroxy-1,2,3,4,5,5a,6,7-octahydro-6,11b-(epiminoethano)naphtho[1,2-d]azepine-10-carboxamide] — 5.7-fold higher, 0.12 nM
- Cc1cn(CCN2CC[C@]34CCN(CC5CC5)[C@H](Cc5ccc(O)cc53)[C@]4(O)CC2)nc1C(F)(F)F [Example 164, (5aS,6R,11bS)-14-(cyclopropylmethyl)-3-(2-(4-methyl-3-(trifluoromethyl)-1H-pyrazol-1-yl)ethyl)-2,3,4,5,6,7-hexahydro-6,11b-(epiminoethano)naphtho[1,2-d]azepine-5a,10(1H)-diol] — 12-fold higher, 0.26 nM
- Cc1cnn(CCN2CC[C@]34CCN(CC5(F)CC5)[C@H](Cc5ccc(O)cc53)[C@]4(O)CC2)c1 [Example 226, (5aS,6R,11bS)-14-((1-fluorocyclopropyl)methyl)-3-(2-(4-methyl-1H-pyrazol-1-yl)ethyl)-2,3,4,5,6,7-hexahydro-6,11b-(epiminoethano)naphtho[1,2-d]azepine-5a,10(1H)-diol] — within 1.5-fold, 0.017 nM
- Oc1ccc2c(c1)[C@@]13CCN(CCn4nc(C(F)F)cc4C(F)F)CC[C@@]1(O)[C@@H](C2)N(CC1CC1)CC3 [Example 58, (5aS,6R,11bS)-3-(2-(3,5-bis(difluoromethyl)-1H-pyrazol-1-yl)ethyl)-14-(cyclopropylmethyl)-2,3,4,5,6,7-hexahydro-6,11b-(epiminoethano)naphtho[1,2-d]azepine-5a,10(1H)-diol] — 6.7-fold higher, 0.14 nM
- Oc1ccc2c(c1)[C@@]13CCN(CCn4cc(F)cn4)CC[C@@]1(O)[C@@H](C2)N(CC1CC1)CC3 [Example 184, (5aS,6R,11bS)-14-(cyclopropylmethyl)-3-(2-(4-fluoro-1H-pyrazol-1-yl)ethyl)-2,3,4,5,6,7-hexahydro-6,11b-(epiminoethano)naphtho[1,2-d]azepine-5a,10(1H)-diol] — 4.5-fold higher, 0.095 nM
- NC(=O)c1ccc2c(c1)[C@@]13CCN(C(=O)CCn4cc(C(F)(F)F)cn4)CC[C@@]1(O)[C@@H](C2)N(CC1CC1)CC3 [Example 264, (5aS,6R,11bR)-14-(cyclopropylmethyl)-5a-hydroxy-3-(3-(4-(trifluoromethyl)-1H-pyrazol-1-yl)propanoyl)-1,2,3,4,5,5a,6,7-octahydro-6,11b-(epiminoethano)naphtho[1,2-d]azepine-10-carboxamide] — 14-fold higher, 0.29 nM
- Cc1cnn(CCC(=O)N2CC[C@]34CCN(CC5CC5)[C@H](Cc5ccc(O)cc53)[C@]4(O)CC2)c1 [Example 220, 1-((5aS,6R,11bR)-14-(cyclopropylmethyl)-5a,10-dihydroxy-1,2,5,5a,6,7-hexahydro-6,11b-(epiminoethano)naphtho[1,2-d]azepin-3(4H)-yl)-3-(4-methyl-1H-pyrazol-1-yl)propan-1-one] — 12-fold higher, 0.26 nM
- Cc1ccn(CCN2CC[C@]34CCN(CC5CC5)[C@H](Cc5ccc(O)cc53)[C@]4(O)CC2)n1 [Example 47, (5aS,6R,11bS)-14-(cyclopropylmethyl)-3-(2-(3-methyl-1H-pyrazol-1-yl)ethyl)-2,3,4,5,6,7-hexahydro-6,11b-(epiminoethano)naphtho[1,2-d]azepine-5a,10(1H)-diol] — 11-fold higher, 0.23 nM
- Cc1cc2c(cc1O)[C@@]13CCN(C(=O)Cc4n[nH]c5ccccc45)CC[C@@]1(O)[C@@H](C2)N(CC1CC1)CC3 [Example 357, 1-((5aS,6R,11bR)-14-(cyclopropylmethyl)-5a,10-dihydroxy-9-methyl-1,2,5,5a,6,7-hexahydro-6,11b-(epiminoethano)naphtho[1,2-d]azepin-3(4H)-yl)-2-(1H-indazol-3-yl)ethan-1-one] — 3-fold higher, 0.062 nM
- Oc1ccc2c(c1)[C@@]13CCN(CCn4cc(C(F)(F)F)cn4)CC[C@@]1(O)[C@@H](C2)N(CC1CC1)CC3 [Example 144, (5aS,6R,11bS)-14-(cyclopropylmethyl)-3-(2-(4-(trifluoromethyl)-1H-pyrazol-1-yl)ethyl)-2,3,4,5,6,7-hexahydro-6,11b-(epiminoethano)naphtho[1,2-d]azepine-5a,10(1H)-diol] — within 1.5-fold, 0.019 nM
- CCc1cnn(CCN2CC[C@]34CCN(CC5CC5)[C@H](Cc5ccc(O)cc53)[C@]4(O)CC2)c1 [Example 193, (5aS,6R,11bS)-14-(cyclopropylmethyl)-3-(2-(4-ethyl-1H-pyrazol-1-yl)ethyl)-2,3,4,5,6,7-hexahydro-6,11b-(epiminoethano)naphtho[1,2-d]azepine-5a,10(1H)-diol] — 1.7-fold higher, 0.035 nM
- Oc1ccc2c(c1)[C@@]13CCN(CCc4ncccc4F)CC[C@@]1(O)[C@@H](C2)N(CC1CC1)CC3 [Example 100, (5aS,6R,11bS)-14-(cyclopropylmethyl)-3-(2-(3-fluoropyridin-2-yl)ethyl)-2,3,4,5,6,7-hexahydro-6,11b-(epiminoethano)naphtho[1,2-d]azepine-5a,10(1H)-diol] — 12-fold higher, 0.26 nM
- Cc1cnn(C2CC(N3CC[C@]45CCN(CC6CC6)[C@H](Cc6ccc(O)cc64)[C@]5(O)CC3)C2)c1 (single isomer, unassigned) [Example 227 (I)] — within 1.5-fold, 0.015 nM
- CC(C)c1cnn(CCN2CC[C@]34CCN(CC5CC5)[C@H](Cc5ccc(O)cc53)[C@]4(O)CC2)c1 [Example 195, (5aS,6R,11bS)-14-(cyclopropylmethyl)-3-(2-(4-isopropyl-1H-pyrazol-1-yl)ethyl)-2,3,4,5,6,7-hexahydro-6,11b-(epiminoethano)naphtho[1,2-d]azepine-5a,10(1H)-diol] — within 1.5-fold, 0.023 nM
- Cc1cnn(CCN2CC[C@]34CCN(CC5CC5)[C@H](Cc5ccc(O)cc53)[C@]4(O)CC2C)c1 (stereo partly drawn) [Example 274, (5aS,6R,11bS)-14-(cyclopropylmethyl)-4-methyl-3-(2-(4-methyl-1H-pyrazol-1-yl)ethyl)-2,3,4,5,6,7-hexahydro-6,11b-(epiminoethano)naphtho[1,2-d]azepine-5a,10(1H)-diol] — 3.3-fold higher, 0.07 nM
- C[Si]1(C)CCN(CC(=O)N2CC[C@]34CCN(CC5CC5)[C@H](Cc5ccc(O)cc53)[C@]4(O)CC2)CC1 [Example 132, 1-((5aS,6R,11bR)-14-(cyclopropylmethyl)-5a,10-dihydroxy-1,2,5,5a,6,7-hexahydro-6,11b-(epiminoethano)naphtho[1,2-d]azepin-3(4H)-yl)-2-(4,4-dimethyl-1,4-azasilinan-1-yl)ethan-1-one] — 7.6-fold higher, 0.16 nM
- Oc1ccc2c(c1)[C@@]13CCN(CCn4ncc5ccccc54)CC[C@@]1(O)[C@@H](C2)N(CC1CC1)CC3 [Example 122, (5aS,6R,11bS)-3-(2-(1H-indazol-1-yl)ethyl)-14-(cyclopropylmethyl)-2,3,4,5,6,7-hexahydro-6,11b-(epiminoethano)naphtho[1,2-d]azepine-5a,10(1H)-diol] — 7.1-fold higher, 0.15 nM
- Cn1cnc(CCN2CC[C@]34CCN(CC5CC5)[C@H](Cc5ccc(O)cc53)[C@]4(O)CC2)c1 [Example 41, (5aS,6R,11bS)-14-(cyclopropylmethyl)-3-(2-(1-methyl-1H-imidazol-4-yl)ethyl)-2,3,4,5,6,7-hexahydro-6,11b-(epiminoethano)naphtho[1,2-d]azepine-5a,10(1H)-diol] — 6.2-fold higher, 0.13 nM
- Oc1ccc2c(c1)[C@@]13CCN(CCc4cnccn4)CC[C@@]1(O)[C@@H](C2)N(CC1CC1)CC3 [Example 84, (5aS,6R,11bS)-14-(cyclopropylmethyl)-3-(2-(pyrazin-2-yl)ethyl)-2,3,4,5,6,7-hexahydro-6,11b-(epiminoethano)naphtho[1,2-d]azepine-5a,10(1H)-diol] — 22-fold higher, 0.47 nM
- O=C(Cc1cn2ccccc2n1)N1CC[C@]23CCN(CC4CC4)[C@H](Cc4ccc(O)cc42)[C@]3(O)CC1 [Example 115, 1-((5aS,6R,11bR)-14-(cyclopropylmethyl)-5a,10-dihydroxy-1,2,5,5a,6,7-hexahydro-6,11b-(epiminoethano)naphtho[1,2-d]azepin-3(4H)-yl)-2-(imidazo[1,2-a]pyridin-2-yl)ethan-1-one] — 7.1-fold higher, 0.15 nM
- CC(C)c1cn(CC(=O)N2CC[C@]34CCN(CC5CC5)[C@H](Cc5ccc(O)cc53)[C@]4(O)CC2)nn1 [Example 165, 1-((5aS,6R,11bR)-14-(cyclopropylmethyl)-5a,10-dihydroxy-1,2,5,5a,6,7-hexahydro-6,11b-(epiminoethano)naphtho[1,2-d]azepin-3(4H)-yl)-2-(4-isopropyl-1H-1,2,3-triazol-1-yl)ethan-1-one] — 13-fold higher, 0.28 nM
- Oc1ccc2c(c1)[C@@]13CCN(CCN4CCCCC4)CC[C@@]1(O)[C@@H](C2)N(CC1CC1)CC3 [Example 130, (5aS,6R,11bS)-14-(cyclopropylmethyl)-3-(2-(piperidin-1-yl)ethyl)-2,3,4,5,6,7-hexahydro-6,11b-(epiminoethano)naphtho[1,2-d]azepine-5a,10(1H)-diol] — 17-fold higher, 0.36 nM
- Oc1ccc2c(c1)[C@@]13CCN(CCc4nc5ccccc5s4)CC[C@@]1(O)[C@@H](C2)N(CC1CC1)CC3 [Example 128, (5aS,6R,11bS)-3-(2-(benzo[d]thiazol-2-yl)ethyl)-14-(cyclopropylmethyl)-2,3,4,5,6,7-hexahydro-6,11b-(epiminoethano)naphtho[1,2-d]azepine-5a,10(1H)-diol] — 4.8-fold higher, 0.1 nM
